Results: PubChem BioAssay (NCI)
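96-well plates; 48 h exposure; 5 concentrations. Endpoints by linear interpolation between flanking doses. Not reached: highest tested concentration assigned. At the GI50, growth is halved. The concentration for full growth arrest is given as TGI.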

Assays:
Assay in all cases: inhibition of tumour cell growth, NCI panel, 48 h
SK-MEL-2 melanoma = test system: SK-MEL-2 melanoma
TK-10 renal = test system: TK-10 renal
LOX IMVI melanoma = test system: LOX IMVI melanoma
SF-539 CNS = test system: SF-539 CNS
MALME-3M melanoma = test system: MALME-3M melanoma
NCI-H23 lung = test system: NCI-H23 lung
RPMI-8226 leukemia = test system: RPMI-8226 leukemia
NCI-H522 lung = test system: NCI-H522 lung
OVCAR-4 ovarian = test system: OVCAR-4 ovarian
SK-OV-3 ovarian = test system: SK-OV-3 ovarian
SNB-75 CNS = test system: SNB-75 CNS
HCT-15 colon = test system: HCT-15 colon
SF-268 CNS = test system: SF-268 CNS
UACC-62 melanoma = test system: UACC-62 melanoma
HS 578T breast = test system: HS 578T breast
CAKI-1 renal = test system: CAKI-1 renal
A549 NSCLC = test system: A549 NSCLC
NCI-H226 lung = test system: NCI-H226 lung
MDA-MB-231 breast = test system: MDA-MB-231 breast
786-0 renal = test system: 786-0 renal
U251 CNS = test system: U251 CNS
SK-MEL-28 melanoma = test system: SK-MEL-28 melanoma
HL-60(TB) leukemia = test system: HL-60(TB) leukemia
SN12C renal = test system: SN12C renal
COLO 205 colon = test system: COLO 205 colon
OVCAR-8 ovarian = test system: OVCAR-8 ovarian
HOP-62 NSCLC = test system: HOP-62 NSCLC
HCC-2998 colon = test system: HCC-2998 colon
MCF7 breast = test system: MCF7 breast
MDA-MB-435 = test system: MDA-MB-435
T-47D breast = test system: T-47D breast
SW-620 colon = test system: SW-620 colon
A498 renal = test system: A498 renal
CCRF-CEM leukemia = test system: CCRF-CEM leukemia
MDA-MB-468 breast = test system: MDA-MB-468 breast
UACC-257 melanoma = test system: UACC-257 melanoma
PC-3 prostate = test system: PC-3 prostate
IGROV1 ovarian = test system: IGROV1 ovarian
MOLT-4 leukemia = test system: MOLT-4 leukemia
SF-295 CNS = test system: SF-295 CNS
ACHN renal = test system: ACHN renal
SR leukemia = test system: SR leukemia
OVCAR-3 ovarian = test system: OVCAR-3 ovarian
HOP-92 NSCLC = test system: HOP-92 NSCLC
HT29 colon = test system: HT29 colon
RXF 393 renal = test system: RXF 393 renal
NCI-H460 lung = test system: NCI-H460 lung
SK-MEL-5 melanoma = test system: SK-MEL-5 melanoma
EKVX NSCLC = test system: EKVX NSCLC
HCT-116 colon = test system: HCT-116 colon
UO-31 renal = test system: UO-31 renal
K-562 leukemia = test system: K-562 leukemia
DU-145 prostate = test system: DU-145 prostate
M14 melanoma = test system: M14 melanoma
BT-549 breast = test system: BT-549 breast
KM12 colon = test system: KM12 colon
OVCAR-5 ovarian = test system: OVCAR-5 ovarian
SNB-19 CNS = test system: SNB-19 CNS

CC(=O)Nc1cccc(Nc2nc(NCc3ccccc3)c3ccccc3n2)c1
GI50 (SK-MEL-2 melanoma): 3.41 µM | TGI (SK-MEL-2 melanoma): > 10 µM | GI50 (TK-10 renal): 3.12 µM | TGI (TK-10 renal): > 10 µM | GI50 (LOX IMVI melanoma): 1.6 µM | TGI (LOX IMVI melanoma): 2.98 µM | GI50 (SF-539 CNS): 1.74 µM | TGI (SF-539 CNS): 3.15 µM | GI50 (MALME-3M melanoma): 1.48 µM | TGI (MALME-3M melanoma): 2.81 µM | GI50 (NCI-H23 lung): 2.5 µM | TGI (NCI-H23 lung): 9.11 µM | GI50 (RPMI-8226 leukemia): 3.24 µM | TGI (RPMI-8226 leukemia): > 10 µM | GI50 (NCI-H522 lung): 1.68 µM | TGI (NCI-H522 lung): 3.24 µM | GI50 (OVCAR-4 ovarian): 1.79 µM | TGI (OVCAR-4 ovarian): 3.66 µM | GI50 (SK-OV-3 ovarian): > 10 µM | TGI (SK-OV-3 ovarian): > 10 µM | GI50 (SNB-75 CNS): 1.42 µM | TGI (SNB-75 CNS): 3.51 µM | GI50 (HCT-15 colon): 1.76 µM | TGI (HCT-15 colon): 3.45 µM | GI50 (SF-268 CNS): > 10 µM | TGI (SF-268 CNS): > 10 µM | GI50 (UACC-62 melanoma): 1.42 µM | TGI (UACC-62 melanoma): 2.74 µM | GI50 (HS 578T breast): 2.16 µM | TGI (HS 578T breast): 5.96 µM | GI50 (CAKI-1 renal): 1.82 µM | TGI (CAKI-1 renal): 4.4 µM | GI50 (A549 NSCLC): 2.82 µM | TGI (A549 NSCLC): > 10 µM | GI50 (NCI-H226 lung): 1.69 µM | TGI (NCI-H226 lung): 4.15 µM | GI50 (MDA-MB-231 breast): 1.69 µM | TGI (MDA-MB-231 breast): 3.24 µM | GI50 (786-0 renal): 1.83 µM | TGI (786-0 renal): 3.87 µM | GI50 (U251 CNS): 1.87 µM | TGI (U251 CNS): 3.93 µM | GI50 (SK-MEL-28 melanoma): 1.61 µM | TGI (SK-MEL-28 melanoma): 3.02 µM | GI50 (HL-60(TB) leukemia): 3.58 µM | TGI (HL-60(TB) leukemia): > 10 µM | GI50 (SN12C renal): > 10 µM | TGI (SN12C renal): > 10 µM | GI50 (COLO 205 colon): 1.9 µM | TGI (COLO 205 colon): 3.53 µM | GI50 (OVCAR-8 ovarian): 2.25 µM | TGI (OVCAR-8 ovarian): 5.17 µM | GI50 (HOP-62 NSCLC): 3.46 µM | TGI (HOP-62 NSCLC): > 10 µM | GI50 (HCC-2998 colon): 1.68 µM | TGI (HCC-2998 colon): 3.22 µM | GI50 (MCF7 breast): 1.61 µM | TGI (MCF7 breast): 3.06 µM | GI50 (MDA-MB-435): 1.7 µM | TGI (MDA-MB-435): 3.26 µM | GI50 (T-47D breast): 1.65 µM | TGI (T-47D breast): 3.81 µM | GI50 (SW-620 colon): 1.83 µM | TGI (SW-620 colon): 3.37 µM | GI50 (A498 renal): > 10 µM | TGI (A498 renal): > 10 µM | GI50 (CCRF-CEM leukemia): 2.81 µM | TGI (CCRF-CEM leukemia): 7.87 µM | GI50 (MDA-MB-468 breast): 1.54 µM | TGI (MDA-MB-468 breast): 3.01 µM | GI50 (UACC-257 melanoma): 1.86 µM | TGI (UACC-257 melanoma): 3.74 µM | GI50 (PC-3 prostate): 2.32 µM | TGI (PC-3 prostate): 8.15 µM | GI50 (IGROV1 ovarian): 3.15 µM | TGI (IGROV1 ovarian): > 10 µM | GI50 (MOLT-4 leukemia): 3.08 µM | TGI (MOLT-4 leukemia): > 10 µM | GI50 (SF-295 CNS): 1.66 µM | TGI (SF-295 CNS): 3.05 µM | GI50 (ACHN renal): 1.77 µM | TGI (ACHN renal): 3.66 µM | GI50 (SR leukemia): 4.05 µM | TGI (SR leukemia): > 10 µM | GI50 (OVCAR-3 ovarian): 1.74 µM | TGI (OVCAR-3 ovarian): 3.3 µM | GI50 (HOP-92 NSCLC): 1.52 µM | TGI (HOP-92 NSCLC): 7.85 µM | GI50 (HT29 colon): 1.84 µM | TGI (HT29 colon): 3.82 µM | GI50 (RXF 393 renal): 1.56 µM | TGI (RXF 393 renal): 3.22 µM | GI50 (NCI-H460 lung): 1.68 µM | TGI (NCI-H460 lung): 3.3 µM | GI50 (SK-MEL-5 melanoma): 1.47 µM | TGI (SK-MEL-5 melanoma): 3.12 µM | GI50 (EKVX NSCLC): 4.01 µM | TGI (EKVX NSCLC): > 10 µM | GI50 (HCT-116 colon): 1.66 µM | TGI (HCT-116 colon): 3.16 µM | GI50 (UO-31 renal): 1.73 µM | TGI (UO-31 renal): 5.41 µM | GI50 (K-562 leukemia): 3.25 µM | TGI (K-562 leukemia): > 10 µM | GI50 (DU-145 prostate): 5.41 µM | TGI (DU-145 prostate): > 10 µM | GI50 (M14 melanoma): 1.66 µM | TGI (M14 melanoma): 3.11 µM | GI50 (BT-549 breast): > 10 µM | TGI (BT-549 breast): > 10 µM | GI50 (KM12 colon): 2.11 µM | TGI (KM12 colon): 4.91 µM | GI50 (OVCAR-5 ovarian): 2.08 µM | TGI (OVCAR-5 ovarian): 5.67 µM | GI50 (SNB-19 CNS): 2.49 µM | TGI (SNB-19 CNS): 9.38 µM
